Assay: Henry solubility constant Hcp at 298.15 K (mol/(m3 Pa))
Conditions: reference: Shiu and Mackay (1997)

Row | Compound | Henry solubility constant Hcp
1 | Clc1cc(Cl)c(Cl)c(Cl)c1 [1,2,3,5-tetrachlorobenzene] | 0.0063
2 | Clc1cccc(Cl)c1Cl [1,2,3-trichlorobenzene] | 0.0079
3 | Clc1ccc(Cl)cc1 [1,4-dichlorobenzene] | 0.0041
4 | Cc1cccc2c(C)cccc12 [1,5-dimethylnaphthalene] | 0.028
5 | Clc1cccc2ccccc12 [1-chloronaphthalene] | 0.028
6 | CCCCCCCO [1-heptanol] | 0.18
7 | Cc1cccc2ccccc12 [1-methylnaphthalene] | 0.041
8 | CC(=O)c1ccccc1 [1-phenylethanone] | 0.93
9 | c1ccc2c(c1)Cc1ccccc1-2 [2,3-benzindene] | 0.1
10 | Clc1ccc2ccccc2c1 [2-chloronaphthalene] | 0.03
11 | CCCCCC(C)=O [2-heptanone] | 0.058
12 | CC(C)CO [2-methyl-1-propanol] | 0.37
13 | CCCC(C)=O [2-pentanone] | 0.12
14 | c1cc2c3c(cccc3c1)CC2 [acenaphthene] | 0.062
15 | c1ccc2cc3ccccc3cc2c1 [anthracene] | 0.13
16 | c1ccc(-c2ccccc2)cc1 [biphenyl] | 0.032
17 | Brc1ccccc1 [bromobenzene] | 0.004
18 | Clc1ccccc1 [chlorobenzene] | 0.0032
19 | c1ccc2ccccc2c1 [naphthalene] | 0.022
20 | c1ccc2c(c1)ccc1ccccc12 [phenanthrene] | 0.28

— Sander's compilation of Henry's law constants (doi:10.1021/je960218u)
